Among the data in patent US12521440B2, “Degradation of bruton's tyrosine kinase (BTK) by conjugation of BTK inhibitors with E3 ligase ligand and methods of use” (BeOne Medicines I GmbH, priority 2021, dated 2026) are DC50 and IC50 values, retold here.

pIC50: −log10 of the molar value.

The target in one assay is T1, BTK (Homo sapiens, UniProt Q06187).
T1 construct: endogenous in cells; host or cells: TMD-8 cells
Briefly: BTK degradation in TMD-8 cells (HTRF assay). Format: cell-based. The note with it: 6 h treatment, HTRF BTK degradation IC50 (DC50). As for the experimental part:
TMD-8 cells were treated with compounds diluted in 0.2% DMSO, dilution was done according to the following protocol: (1) making 500×stock solution in DMSO from 1 mM by 6-fold dilution, total 8 doses were included; (2) making 2×solution in cell culture medium by transferring 0.5 μl 500×stock solution into 125 μl medium; (3) adding 15 μl of 2×solution to cells for incubation of 6 h.
After 6 h treatment, 10 μl 4×lysis buffer was added to each well; the plate was sealed and incubated for 30 min at room temperature on a plate shaker; Once the cells was lysed, 16 μL of cell lysate were transferred to a PE 384-well HTRF detection plate; 4 μL of pre-mixed HTRF antibodies were added to each well; the plate was covered with a plate sealer, and then spinned at 1000 rpm for 1 min, then incubated overnight at room temperature; the results were read on BMG PheraStar with HTRF protocol (337 nm-665 nm-620 nm).
(§1) The IC50 (DC50) value of a compound can be obtained by fitting the following equation Y=Bottom+(TOP−Bottom)/(1+((IC50/X)^hillslope)) wherein, X and Y are known values, and IC50, Hillslope, Top and Bottom are the parameters obtained by fitting with software. Y is the inhibition percentage (calculated from the equation), X is the concentration of the compound; IC50 is the concentration of the compound when the 50% inhibition is reached. The smaller the IC50 value is, the stronger the inhibitory ability of the compound is. Vice versa, the higher the IC50 value is, the weaker the ability the inhibitory ability of the compound is; Hillslope represents the slope of the fitted curve, generally around 1*; Bottom represents the minimum value of the curve obtained by data fitting, which is generally 0%±20%; Top represents the maximum value of the curve obtained by data fitting, which is generally 100%±20%. The experimental data were fitted by calculating and analyzing with Dotmatics data analysis software. HEK-293 Cell Treatment
(TR-FRET usually uses a lanthanide donor and a delayed reading to cut background.)

A further assay relates to HEK-293 cells. The assay is described as follows: HEK-293 cytotoxicity detection (CellTiter-Glo). Format: cell-based. As to conditions: Homo sapiens, 72 h incubation, read-out: HEK293.
Excerpt: as §1
HEK-293 cells were treated with compounds diluted in 0.2% DMSO, dilution was done according to the following protocol: (1) making 500×stock solution in DMSO from 5 mM by 4-fold dilution, total 8 doses were included; (2) making 2×solution in cell culture medium by transferring 0.5 ul 500×stock solution into 125 ul medium; (3) adding 50 ul of 2×solution to cells for incubation of 72 h.
25 μl of the CellTiter-Glo® Reagent [(Promega)—Cat No. G7572] was added to each well in the 96-well plate. The contents were mixed for 2 minutes on an orbital shaker to induce cell lysis. The plate was then allowed to incubate at room temperature for 10 minutes to stabilize luminescent signal. Luminescence was recorded on BMG PheraStar with luminescence protocol.
as §1, with “IC50” for “IC50 (DC50)”, “Wherein,” for “wherein,”, “software.” for “software. HEK-293 Cell Treatment”
(ATP-based viability assays read luminescence as a measure of living cells.)

T1 sequence (Q06187 whole entry): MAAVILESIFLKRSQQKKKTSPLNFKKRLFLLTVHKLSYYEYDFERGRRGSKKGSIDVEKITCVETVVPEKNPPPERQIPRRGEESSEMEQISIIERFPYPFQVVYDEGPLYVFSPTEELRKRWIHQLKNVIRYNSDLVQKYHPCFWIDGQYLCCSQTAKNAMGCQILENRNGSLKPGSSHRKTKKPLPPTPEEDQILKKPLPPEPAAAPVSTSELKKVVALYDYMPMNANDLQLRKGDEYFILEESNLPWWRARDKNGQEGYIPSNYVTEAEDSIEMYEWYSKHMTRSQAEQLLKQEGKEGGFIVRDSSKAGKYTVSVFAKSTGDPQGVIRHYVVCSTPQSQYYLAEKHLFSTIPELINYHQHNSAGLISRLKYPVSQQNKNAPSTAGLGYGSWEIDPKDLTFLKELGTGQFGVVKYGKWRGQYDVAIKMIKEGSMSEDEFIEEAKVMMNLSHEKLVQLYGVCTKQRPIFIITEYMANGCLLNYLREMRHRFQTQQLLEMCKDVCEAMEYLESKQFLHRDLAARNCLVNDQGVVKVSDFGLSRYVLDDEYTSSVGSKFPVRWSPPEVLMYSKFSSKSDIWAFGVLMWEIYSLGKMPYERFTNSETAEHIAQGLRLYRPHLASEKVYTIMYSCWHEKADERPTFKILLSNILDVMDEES

As usually defined, the DC50 is the concentration giving 50% degradation. A lower DC50 goes with degradation at low concentration. For the compound `Cc1cc(-c2cc(Nc3ccc(N4CC5(CN(C(=O)C6CN(c7ccc(N8CCC(=O)NC8=O)cc7)C6)C5)C4)cn3)ncn2)ccc1[C@@H](C)NC(=O)c1nc(C(C)(C)C)no1` [Example 35, (R)-3-(tert-butyl)-N-(1-(4-(6-((5-(6-(1-(4-(2,4-dioxotetrahydropyrimidin-1(2H)-yl)phenyl)azetidine-3-carbonyl)-2,6-diazaspiro [3.3]heptan-2-yl)pyridin-2-yl)amino)pyrimidin-4-yl)-2-methylphenyl)ethyl)-1,2,4-oxadiazole-5-carboxamide], it took 0.981 nM to reach half-maximal degradation on BTK (DC50). Further, the pIC50 with HEK-293 cells was below 5.00.

With `Cc1cc(-c2cc(Nc3ncc(N4CCN(CC5CCN(c6ccc(N7CCC(=O)NC7=O)cc6)CC5)CC4)cn3)ncn2)ccc1[C@@H](C)NC(=O)c1nc(C(C)(C)C)no1` [Example 14, (R)-3-(tert-butyl)-N-(1-(4-(6-((5-(4-((1-(4-(2,4-dioxotetrahydropyrimidin-1(2H)-yl)phenyl)piperidin-4-yl)methyl)piperazin-1-yl)pyrimidin-2-yl)amino)pyrimidin-4-yl)-2-methylphenyl)ethyl)-1,2,4-oxadiazole-5-carboxamide], the DC50 on BTK came to 3.21 nM. In addition, the pIC50 in the assay on HEK-293 cells is below 5.00.

`Cc1cc(-c2cc(Nc3ccc(N4CCN([C@H]5C[C@@H](c6ccc(N[C@H]7CCC(=O)NC7=O)cc6)C5)CC4)cn3)ncn2)ccc1[C@@H](C)NC(=O)c1nc(C(C)(C)C)no1` [Example 54, 3-(tert-butyl)-N—((R)-1-(4-(6-((5-(4-((1R,3s)-3-(4-(((S)-2,6-dioxopiperidin-3-yl)amino)phenyl)cyclobutyl)piperazin-1-yl)pyridin-2-yl)amino)pyrimidin-4-yl)-2-methylphenyl)ethyl)-1,2,4-oxadiazole-5-carboxamide] came in with a DC50 on BTK of 4.13 nM. In the assay with HEK-293 cells, the pIC50 was below 5.00.

`Cc1cc(-c2cc(Nc3ccc(N4CCN(CC5CCN(c6ccc(N7CCC(=O)NC7=O)c(F)c6)CC5)CC4)cn3)ncn2)ccc1[C@@H](C)NC(=O)c1nc(C(C)(C)C)no1` [Example 17, (R)-3-(tert-butyl)-N-(1-(4-(6-((5-(4-((1-(4-(2,4-dioxotetrahydropyrimidin-1(2H)-yl)-3-fluorophenyl)piperidin-4-yl)methyl)piperazin-1-yl)pyridin-2-yl)amino)pyrimidin-4-yl)-2-methylphenyl)ethyl)-1,2,4-oxadiazole-5-carboxamide] gave a DC50 on BTK of 2.2 nM. The pIC50 with HEK-293 cells is below 5.00.

Turning to `Cc1cc(-c2ccnc(Nc3ccc(N4CCN(C5CC6(CCN(c7ccc(N8CCC(=O)NC8=O)cc7)CC6)C5)CC4)cn3)n2)ccc1[C@@H](C)NC(=O)c1nc(C(C)(C)C)no1` [Example 68, (R)-3-(tert-butyl)-N-(1-(4-(2-((5-(4-(7-(4-(2,4-dioxotetrahydropyrimidin-1(2H)-yl)phenyl)-7-azaspiro[3.5]nonan-2-yl)piperazin-1-yl)pyridin-2-yl)amino)pyrimidin-4-yl)-2-methylphenyl)ethyl)-1,2,4-oxadiazole-5-carboxamide], on BTK, the DC50 was 17.4 nM. Further, the pIC50 with HEK-293 cells is below 5.00.

On BTK, `Cc1cc(-c2cc(Nc3ccc(N4CCC(CN5CCN(c6ccc(N7CCC(=O)NC7=O)cc6)CC5)CC4)cn3)ncn2)ccc1[C@@H](C)NC(=O)c1nc(C(C)(C)C)no1` [Example 21, (R)-3-(tert-butyl)-N-(1-(4-(6-((5-(4-((4-(4-(2,4-dioxotetrahydropyrimidin-1(2H)-yl)phenyl)piperazin-1-yl)methyl)piperidin-1-yl)pyridin-2-yl)amino)pyrimidin-4-yl)-2-methylphenyl)ethyl)-1,2,4-oxadiazole-5-carboxamide] yielded a DC50 of 2.11 nM. For the same compound, the pIC50 with HEK-293 cells is below 5.00.

Consider `Cc1c([C@@H](C)NC(=O)c2nc(C(C)(C)C)no2)ccc(-c2cc(Nc3ccc(N4CCN(CC5CCN(c6ccc(N7CCC(=O)NC7=O)cc6)CC5)CC4)cn3)ncn2)c1F` [Example 9, (R)-3-(tert-butyl)-N-(1-(4-(6-((5-(4-((1-(4-(2,4-dioxotetrahydropyrimidin-1(2H)-yl)phenyl)piperidin-4-yl)methyl)piperazin-1-yl)pyridin-2-yl)amino)pyrimidin-4-yl)-3-fluoro-2-methylphenyl)ethyl)-1,2,4-oxadiazole-5-carboxamide], for which the DC50 at BTK worked out at 138 nM. The pIC50 in the assay on HEK-293 cells is below 5.00.

With `Cc1cc(-c2cc(Nc3ccc(N4CCC5(CC4)CN(C(=O)C4CN(c6ccc(N7CCC(=O)NC7=O)cc6)C4)C5)cn3)ncn2)ccc1[C@@H](C)NC(=O)c1nc(C(C)(C)C)no1` [Example 36, (R)-3-(tert-butyl)-N-(1-(4-(6-((5-(2-(1-(4-(2,4-dioxotetrahydropyrimidin-1(2H)-yl)phenyl)azetidine-3-carbonyl)-2,7-diazaspiro [3.5]nonan-7-yl)pyridin-2-yl)amino)pyrimidin-4-yl)-2-methylphenyl)ethyl)-1,2,4-oxadiazole-5-carboxamide], it took 0.566 nM to reach half-maximal degradation on BTK (DC50). For the same compound, the pIC50 in the assay with HEK-293 cells was below 5.00.

Regarding `Cc1cc(-c2cc(Nc3nnc(N4CCN(CC5CCN(c6ccc(N7CCC(=O)NC7=O)cc6)CC5)CC4)s3)ncn2)ccc1[C@@H](C)NC(=O)c1nc(C(C)(C)C)no1` [Example 72, (R)-3-(tert-butyl)-N-(1-(4-(6-((5-(4-((1-(4-(2,4-dioxotetrahydropyrimidin-1(2H)-yl)phenyl)piperidin-4-yl)methyl)piperazin-1-yl)-1,3,4-thiadiazol-2-yl)amino)pyrimidin-4-yl)-2-methylphenyl)ethyl)-1,2,4-oxadiazole-5-carboxamide], half-maximal degradation on BTK (DC50) was put at 11.2 nM. Besides, the pIC50 in the assay on HEK-293 cells is 5.72.

At BTK, `Cc1cc(-c2cc(Nc3ccc(N4CCN(CCn5cccc(CN6CCC(=O)NC6=O)c5=O)CC4)cn3)ncn2)ccc1[C@@H](C)NC(=O)c1nc(C(C)(C)C)no1` [Example 58, (R)-3-(tert-butyl)-N-(1-(4-(6-((5-(4-(2-(3-((2,4-dioxotetrahydropyrimidin-1(2H)-yl)methyl)-2-oxopyridin-1(2H)-yl)ethyl)piperazin-1-yl)pyridin-2-yl)amino)pyrimidin-4-yl)-2-methylphenyl)ethyl)-1,2,4-oxadiazole-5-carboxamide] had a DC50 of 0.276 nM. For the same compound, the pIC50 in the assay on HEK-293 cells is below 5.00.

`Cc1cc(-c2cc(Nc3ccc(N4CCN(C5CN(c6ccc(N7CCC(=O)NC7=O)cc6)C5)CC4)cn3)ncn2)ccc1[C@@H](C)NC(=O)c1nc(C(C)(C)C)no1` [Example 40, (R)-3-(tert-butyl)-N-(1-(4-(6-((5-(4-(1-(4-(2,4-dioxotetrahydropyrimidin-1(2H)-yl)phenyl)azetidin-3-yl)piperazin-1-yl)pyridin-2-yl)amino)pyrimidin-4-yl)-2-methylphenyl)ethyl)-1,2,4-oxadiazole-5-carboxamide]: at BTK, the DC50 worked out at 0.382 nM. Also, the pIC50 with HEK-293 cells was below 5.00.

For `Cc1cc(-c2cc(Nc3ccc(N4CCN(C5CN(c6ccc(C7CCC(=O)NC7=O)cc6)C5)CC4)cn3)ncn2)ccc1[C@@H](C)NC(=O)c1nc(C(C)(C)C)no1` (stereo partly drawn) [Example 41, 3-(tert-butyl)-N-((1R)-1-(4-(6-((5-(4-(1-(4-(2,6-dioxopiperidin-3-yl)phenyl)azetidin-3-yl)piperazin-1-yl)pyridin-2-yl)amino)pyrimidin-4-yl)-2-methylphenyl)ethyl)-1,2,4-oxadiazole-5-carboxamide], it took 2.47 nM to reach half-maximal degradation at BTK (DC50). Also, the pIC50 in the assay on HEK-293 cells is below 5.00.

On to `Cc1cc(-c2cc(Nc3ccc(N4CCN(C5CN(C6CN(c7ccc8c(c7)C(=O)N(C7CCC(=O)NC7=O)C8=O)C6)C5)CC4)cn3)ncn2)ccc1[C@@H](C)NC(=O)c1nc(C(C)(C)C)no1` (stereo partly drawn) [Example 44, 3-(tert-butyl)-N-((1R)-1-(4-(6-((5-(4-(1′-(2-(2,6-dioxopiperidin-3-yl)-1,3-dioxoisoindolin-5-yl)-[1,3′-biazetidin]-3-yl)piperazin-1-yl)pyridin-2-yl)amino)pyrimidin-4-yl)-2-methylphenyl)ethyl)-1,2,4-oxadiazole-5-carboxamide], for which the DC50 on BTK was determined as 1.63 nM. The pIC50 in the assay on HEK-293 cells is below 5.00.
